Source: article PMC8621373, “New Bioactive Fused Triazolothiadiazoles as Bcl-2-Targeted Anticancer Agents” (International Journal of Molecular Sciences, 2021)
Where “and” joins values, the source holds several entries; their conditions need not be identical. Equal values may be shown once. Entries after “also recorded” stand apart in the source; their conditions may differ.

How the values were obtained:
MDA-MB-231 = experiment: Cell viability by MTT assay, MDA-MB-231; type: cell-based; details: Homo sapiens, growth inhibition, 72 h, mean ± SEM
Procedure: (§1) Human breast cancer (MDA-MB-231) and cervical cancer (HeLa) cells, obtained from the ATCC (Manassas, VA, USA), were maintained as previously described. Cytotoxic effects of the tested compounds were assessed using MTT assay. Briefly, 4000 cells in 0.1 mL of medium (Life Technologies, Paisley, UK) were seeded and allowed to adhere for 24 h. The cells were treated with different concentrations of the tested compounds (from 0.00001 to 100 µM) and incubated for 72 h. In total, 20 µL of (5 mg/mL) MTT reagent (3-[4,5-dimethylthiazol-2-yl]-2,5-diphenyl tetrazolium bromide) in PBS was added and incubated for 4 h. The developed purple colour following the addition of DMSO was measured using a Multiskan Go machine (spectrophotometer) at 570 nm absorbance. Each concentration experiment was repeated independently 6 times to establish reproducibility. The percentage cell viability was calculated following the formula below, and IC50 values were obtained by using GraphPad Prism 5 software (San Diego, CA, USA). Cell viability (%) = [(OD test − OD blank) ÷ (OD negative control − OD blank)] × 100(1)

HeLa = experiment: Cell viability by MTT assay, HeLa; type: cell-based; details: Homo sapiens, growth inhibition, 72 h, mean ± SEM
Procedure: as §1

KG1a = experiment: Cell viability CellTiter-Blue assay, KG1a; type: cell-based, human; details: for IC50: Homo sapiens, KG-1a, growth inhibition, CellTiter-Blue, 24 h, mean ± SEM
Procedure: (§2) Human acute myeloid leukemia KG1a and acute T-cell lymphocytic leukemia Jurkat cells were cultured and maintained as previously described. For each experiment, 15,000 cells in 0.1 mL of medium were seeded into a solid-black fluorescence 96-well plate and incubated for 24 h. The cells were treated with different concentrations of the test compounds (from 0.00001 to 100 µM) over a 10-fold dilution series and incubated for 24 h. CellTiter-Blue® solution was added, followed by reading of the fluorescence according to our previous protocol. IC50 values were obtained by using GraphPad Prism 5 software (San Diego, CA, USA). For each concentration, six independent experiments were carried out.

Jurkat = experiment: Cell viability CellTiter-Blue assay, Jurkat (Bcl-2-negative); type: cell-based, human; details: Bcl-2-negative cell line; for IC50: Homo sapiens, Jurkat, growth inhibition, CellTiter-Blue, 24 h, mean ± SEM
Procedure: as §2

His-tagged Bcl-2 protein = His-tagged Bcl-2 protein (Homo sapiens, UniProt P10415); experiment: Competitive ELISA binding assay (interruption of Bcl-2-Bim interaction); details: for IC50: competition with Bim peptide, mean and SEM of three independent measurements
Procedure: ELISA assay was performed to evaluate the ability of the compounds to compete with Bim protein and inhibit its interaction with Bcl-2 protein.. The addition of His-tagged Bcl-2 protein to a biotinylated Bim-coated plate according to our previously published protocol was followed by the addition of anti-His antibody (Abcam, Cambridge, UK) containing horseradish peroxidase enzyme (Qiagen, Crawley, UK), o-phenylenediamine (Sigma-Aldrich, UK) and hydrogen peroxide. The optical density was determined using a plate reader at wavelength of 450 nm. The experiments were carried out on three separate occasions, including both negative and positive controls. A plot of log nM concentration for each inhibitor against the percentage reduction in the Bim peptide was created, using non-linear regression curve analysis (GraphPad Prism 5, San Diego, CA, USA) and a software used to generate IC50 for the Bcl-2 inhibition activity.

[1] = test system: Bcl-2-expressing human cancer cell lines (MDA-MB-231, HeLa and KG1a); experiment: Growth inhibition of Bcl-2-expressing human cancer cell lines (summary); type: cell-based; details: span over MDA-MB-231, HeLa and KG1a, read-out: IC50 against Bcl-2-expressing cell lines
Procedure: as §1, with “Cell viability (%) = [(OD test − OD blank) ÷ (OD negative control − OD blank)] × 100(1)” left out
Human acute myeloid leukemia KG1a and acute T-cell lymphocytic leukemia Jurkat cells were cultured and maintained as previously described. For each experiment, 15,000 cells in 0.1 mL of medium were seeded into a solid-black fluorescence 96-well plate and incubated for 24 h. […] CellTiter-Blue® solution was added, followed by reading of the fluorescence according to our previous protocol. […]

His-tagged Bcl-2 protein, sequence (P10415 whole entry): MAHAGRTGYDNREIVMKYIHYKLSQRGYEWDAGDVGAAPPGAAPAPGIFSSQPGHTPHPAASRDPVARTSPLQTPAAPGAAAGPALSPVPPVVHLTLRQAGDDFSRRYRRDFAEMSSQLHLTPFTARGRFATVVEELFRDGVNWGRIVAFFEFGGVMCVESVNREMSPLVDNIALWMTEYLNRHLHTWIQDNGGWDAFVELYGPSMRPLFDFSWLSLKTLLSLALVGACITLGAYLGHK

Q: For `Sc1nn2c(-c3c[nH]c4ccccc34)nnc2s1` [Compound 4, 3-(1H-Indol-3-yl)-[1,2,4]-triazolo[3,4-b]-[1,3,4]-thiadiazole-6-thiol], which IC50 (MDA-MB-231) is on record?
A: Its IC50 is 15 ± 0.6 µM.

Q: What about the IC50 (HeLa) of the same compound?
A: Its IC50 is 18.2 ± 0.6 µM.

Q: And the melting point?
A: Its melting point is 170 to 172 °C.

Q: What about the IC50 (KG1a) of the same compound?
A: Its IC50 is 28.4 ± 0.43 µM.

Q: What about the IC50 (Jurkat) of the same compound?
A: Its IC50 is 10.3 ± 0.14 µM.

Q: What does the source list for `Ic1ccc(-c2nn3c(-c4c[nH]c5ccccc45)nnc3s2)cc1` [Compound 5a, 3-[6-(4-Iodophenyl)-[1,2,4]-triazolo[3,4-b]-[1,3,4]-thiadiazol-3-yl]-1H-indole]?
A: IC50 (MDA-MB-231): 2.72 ± 0.32 µM; IC50 (HeLa): 0.54 ± 0.02 µM; melting point: 183 to 185 °C; IC50 (KG1a): 1.66 ± 0.03 µM; IC50 (Jurkat): 8.12 ± 0.16 µM

Q: What does the source list for `COc1ccc(-c2nn3c(-c4c[nH]c5ccccc45)nnc3s2)cc1` [Compound 5b, 3-[6-(4-Methoxyphenyl)-[1,2,4]-triazolo[3,4-b]-[1,3,4]-thiadiazol-3-yl]-1H-indole]?
A: IC50 (MDA-MB-231): 1.7 ± 0.61 µM; IC50 (HeLa): 2.7 ± 0.9 µM; IC50 (His-tagged Bcl-2 protein): 1.14 ± 0.09 µM; melting point: 192 to 194 °C; IC50 (KG1a): 3.14 ± 0.19 µM; activity against Jurkat cells (in words) (Jurkat): no activity; IC50 (Jurkat): > 100 µM

Q: Which results are given for `Cc1ccc(-c2nn3c(-c4c[nH]c5ccccc45)nnc3s2)cc1` [Compound 5c, 3-(6-p-Tolyl-[1,2,4]-triazolo[3,4-b]-[1,3,4]-thiadiazol-3-yl)-1H-indole]?
A: IC50 (MDA-MB-231): 16.3 ± 0.19 µM; IC50 (HeLa): 12.5 ± 0.23 µM; melting point: 201 to 203 °C; activity against KG1A cell line (in words) (KG1a; Acute Myeloid Leukemia cell line): inactive; IC50 (KG1a): > 100 µM; activity against Jurkat cells (in words) (Jurkat): no activity; IC50 (Jurkat): > 100 µM

Q: With `Brc1cccc(-c2nn3c(-c4c[nH]c5ccccc45)nnc3s2)c1` [Compound 5d, 3-[6-(3-Bromophenyl)-[1,2,4]-triazolo[3,4-b]-[1,3,4]-thiadiazol-3-yl]-1H-indole] as the compound, how does the IC50 (MDA-MB-231) read?
A: The IC50 was 4.9 ± 0.75 µM.

Q: And the IC50 (HeLa)?
A: Its IC50 is 6.48 ± 0.67 µM.

Q: And the melting point?
A: Its melting point is 179 to 182 °C.

Q: And the IC50 (KG1a)?
A: Its IC50 is 20.2 ± 0.46 µM.

Q: And the IC50 (Jurkat)?
A: Its IC50 is 45.5 ± 0.4 µM.

Q: For `Brc1ccc(-c2nn3c(-c4c[nH]c5ccccc45)nnc3s2)cc1` [Compound 5e, 3-[6-(4-Bromophenyl)-[1,2,4]-triazolo[3,4-b]-[1,3,4]-thiadiazol-3-yl]-1H-indole], which IC50 (MDA-MB-231) is on record?
A: The IC50 was 8.29 ± 0.9 µM.

Q: And the IC50 (HeLa)?
A: The IC50 was 9.8 ± 0.3 µM.

Q: And the IC50 (His-tagged Bcl-2 protein)?
A: The IC50 was 4.6 ± 0.19 µM.

Q: What about the melting point of the same compound?
A: Its melting point is 196 to 198 °C.

Q: What about the IC50 (KG1a) of the same compound?
A: The IC50 was 4.9 ± 0.73 µM.

Q: And the “activity against Jurkat cells (in words)” value (Jurkat)?
A: Its value is “no activity”.

Q: And the IC50 (Jurkat)?
A: Its IC50 is greater than 100 µM.

Q: Which results are given for `Clc1cccc(-c2nn3c(-c4c[nH]c5ccccc45)nnc3s2)c1` [Compound 5f, 3-[6-(3-Chlorophenyl)-[1,2,4]-triazolo[3,4-b]-[1,3,4]-thiadiazol-3-yl]-1H-indole]?
A: IC50 (MDA-MB-231): 12.5 ± 0.66 µM; IC50 (HeLa): 3.6 ± 0.52 µM; melting point: 185 to 187 °C; IC50 (KG1a): 10.2 ± 0.65 µM; IC50 (Jurkat): 20.5 ± 0.52 µM

Q: For `Fc1cccc(-c2nn3c(-c4c[nH]c5ccccc45)nnc3s2)c1` [Compound 5g, 3-[6-(3-Fluorophenyl)-[1,2,4]-triazolo[3,4-b]-[1,3,4]-thiadiazol-3-yl]-1H-indole], which IC50 (MDA-MB-231) is on record?
A: Its IC50 is 7.5 ± 0.98 µM.

Q: And the IC50 (HeLa)?
A: The IC50 was 1.99 ± 0.28 µM.

Q: What about the melting point of the same compound?
A: The melting point was 183 to 185 °C.

Q: And the IC50 (KG1a)?
A: The IC50 was 8.6 ± 0.22 µM.

Q: What about the IC50 (Jurkat) of the same compound?
A: The IC50 was 65.1 ± 1.25 µM.

Q: Which results are given for `O=[N+]([O-])c1ccc(-c2nn3c(-c4c[nH]c5ccccc45)nnc3s2)cc1` [Compound 5h, 3-[6-(4-Nitrophenyl)-[1,2,4]-triazolo[3,4-b]-[1,3,4]-thiadiazol-3-yl]-1H-indole]?
A: IC50 (MDA-MB-231): 3.16 ± 0.32 µM; IC50 (HeLa): 22.1 ± 0.45 µM; melting point: 196 to 198 °C; IC50 (KG1a): 34.5 ± 0.3 µM; IC50 (Jurkat): 58.1 ± 1.3 µM

Q: Which IC50 (MDA-MB-231) does the source give for `FC(F)(F)c1ccc(-c2nn3c(-c4c[nH]c5ccccc45)nnc3s2)cc1` [Compound 5i, 3-[6-(4-Trifluoromethylphenyl)-[1,2,4]-triazolo[3,4-b]-[1,3,4]-thiadiazol-3-yl]-1H-indole] here?
A: The IC50 was 4.22 ± 0.38 µM.

Q: What about the IC50 (HeLa) of the same compound?
A: The IC50 was 2.7 ± 0.19 µM.

Q: And the IC50 (His-tagged Bcl-2 protein)?
A: Its IC50 is 1.74 ± 0.15 µM.

Q: And the melting point?
A: The melting point was 194 to 196 °C.

Q: What about the IC50 (KG1a) of the same compound?
A: Its IC50 is 2.19 ± 0.72 µM.

Q: What about the “activity against Jurkat cells (in words)” value (Jurkat) of the same compound?
A: The value was “no activity”.

Q: What about the IC50 (Jurkat) of the same compound?
A: The IC50 was greater than 100 µM.

Q: What does the source list for `O=[N+]([O-])c1cccc(-c2nn3c(-c4c[nH]c5ccccc45)nnc3s2)c1` [Compound 5j, 3-[6-(3-Nitrophenyl)-[1,2,4]-triazolo[3,4-b]-[1,3,4]-thiadiazol-3-yl]-1H-indole]?
A: IC50 (MDA-MB-231): 3.6 ± 0.28 µM; IC50 (HeLa): 2.18 ± 0.73 µM; IC50 (KG1a): 6.82 ± 0.45 µM; IC50 (Jurkat): 32.2 ± 1.2 µM

Q: With `COc1ccc(-c2nn3c(-c4c[nH]c5ccccc45)nnc3s2)c(OC)c1` [Compound 5k, 3-[6-(2,4-Dimethoxyphenyl)-[1,2,4]-triazolo[3,4-b]-[1,3,4]-thiadiazol-3-yl]-1H-indole] as the compound, how does the IC50 (MDA-MB-231) read?
A: Its IC50 is 0.7 ± 0.3 µM.

Q: What about the IC50 (HeLa) of the same compound?
A: The IC50 was 0.57 ± 0.08 µM.

Q: And the IC50 (His-tagged Bcl-2 protein)?
A: The IC50 was 0.32 µM and 0.3 µM and 0.34 µM and 0.36 µM.

Q: And the “ELISA IC50 compared to (−)-gossypol positive control” value (His-tagged Bcl-2 protein; competitive Bcl-2 ELISA)?
A: Its value is “two-fold lower”.

Q: What about the melting point of the same compound?
A: The melting point was 178 to 180 °C.

Q: And the IC50 (KG1a)?
A: The IC50 was 0.31 ± 0.32 µM.

Q: And the “activity against Jurkat cells (in words)” value (Jurkat)?
A: Its value is “without inhibiting; also recorded: no activity”.

Q: What about the IC50 (Jurkat) of the same compound?
A: The IC50 was greater than 100 µM.

Q: And the IC50 [1]?
A: The IC50 was 0.31 to 0.7 µM.

Q: Which IC50 (MDA-MB-231) does the source give for `COc1cc(OC)cc(-c2nn3c(-c4c[nH]c5ccccc45)nnc3s2)c1` [Compound 5l, 3-[6-(3,5-Dimethoxyphenyl)-[1,2,4]-triazolo[3,4-b]-[1,3,4]-thiadiazol-3-yl]-1H-indole] here?
A: Its IC50 is 0.35 ± 0.29 µM.

Q: What about the IC50 (HeLa) of the same compound?
A: Its IC50 is 1.42 ± 0.17 µM.

Q: What about the IC50 (His-tagged Bcl-2 protein) of the same compound?
A: Its IC50 is 0.45 ± 0.03 µM.

Q: And the melting point?
A: Its melting point is 193 to 195 °C.

Q: What about the IC50 (KG1a) of the same compound?
A: The IC50 was 1.15 ± 0.27 µM.

Q: And the “activity against Jurkat cells (in words)” value (Jurkat)?
A: The value was “no activity”.

Q: And the IC50 (Jurkat)?
A: The IC50 was greater than 100 µM.

Q: What does the source list for `Cc1cc2c(C(C)C)c(O)c(O)c(C=O)c2c(O)c1-c1c(C)cc2c(C(C)C)c(O)c(O)c(C=O)c2c1O` [Gossypol, gossypol, reference compound]?
A: IC50 (MDA-MB-231): 5.5 ± 0.35 µM; IC50 (HeLa): 4.43 ± 0.54 µM; IC50 (KG1a): 4.2 ± 0.35 µM; IC50 (Jurkat): 18.1 ± 1.3 µM
